In brackets after ≈: the same amount, converted by molar mass. Activity calls are given as the source filed them. No cut-off for these calls is given here.
Experiments:
[1] = system: Mycobacterium tuberculosis; experiment: Antitubercular activity against Mycobacterium tuberculosis H37Rv assessed as inhibition of bacterial growth incubated for 5 days by Alamar Blue based assay; type: functional, organism-based; settings: 120 h
[2] = system: Mycobacterium tuberculosis; experiment: Antitubercular activity against Mycobacterium tuberculosis infected in human THP-1 cells assessed as reduction in colony forming units at 5 to 9 microg/ml incubated for 48 hrs in presence of ethambutol; type: functional, organism-based; settings: dose 5-9 µg/ml
[3] = system: Mycobacterium tuberculosis; experiment: Antitubercular activity against Mycobacterium tuberculosis H37Rv infected in BALB/c mouse chronic model assessed as reduction in tubercular granulomas at 2.5 mg/kg, ip measured after 4 weeks by H and E staining based analysis; type: functional, organism-based
[4] = system: Mycobacterium tuberculosis; experiment: Downregulation of PKS13 mRNA expression in Mycobacterium tuberculosis assessed as fold change by qRT-PCR analysis; type: functional
THP-1 = experiment: Cytotoxicity against PMA-differentiated human THP-1 cells assessed as reduction in cell viability at 25 microg/ml incubated for 24 hrs by MTT assay; type: toxicity, cell-based; settings: thp-1, 24 h, dose 25 µg/ml
[5] = system: Mycobacterium tuberculosis; experiment: Downregulation of IspD mRNA expression in Mycobacterium tuberculosis assessed as fold change by qRT-PCR analysis; type: functional
[6] = system: Mycobacterium tuberculosis; experiment: Antitubercular activity against Mycobacterium tuberculosis infected in mouse RAW264.7 cells assessed as reduction in colony forming units at 5 to 9 microg/ml incubated for 48 hrs in presence of ethambutol; type: functional, organism-based; settings: dose 5-9 µg/ml
[7] = system: Mycobacterium tuberculosis; experiment: Downregulation of groES mRNA expression in Mycobacterium tuberculosis assessed as fold change by qRT-PCR analysis; type: functional
[8] = target: T1, Long-chain-fatty-acid--AMP ligase FadD32 (Mycobacterium tuberculosis (strain ATCC 25618 / H37Rv)) (UniProt O53580); experiment: Inhibition of Mycobacterium tuberculosis H37Rv recombinant fadD32 at 200 uM relative to control
T1 sequence (whole entry): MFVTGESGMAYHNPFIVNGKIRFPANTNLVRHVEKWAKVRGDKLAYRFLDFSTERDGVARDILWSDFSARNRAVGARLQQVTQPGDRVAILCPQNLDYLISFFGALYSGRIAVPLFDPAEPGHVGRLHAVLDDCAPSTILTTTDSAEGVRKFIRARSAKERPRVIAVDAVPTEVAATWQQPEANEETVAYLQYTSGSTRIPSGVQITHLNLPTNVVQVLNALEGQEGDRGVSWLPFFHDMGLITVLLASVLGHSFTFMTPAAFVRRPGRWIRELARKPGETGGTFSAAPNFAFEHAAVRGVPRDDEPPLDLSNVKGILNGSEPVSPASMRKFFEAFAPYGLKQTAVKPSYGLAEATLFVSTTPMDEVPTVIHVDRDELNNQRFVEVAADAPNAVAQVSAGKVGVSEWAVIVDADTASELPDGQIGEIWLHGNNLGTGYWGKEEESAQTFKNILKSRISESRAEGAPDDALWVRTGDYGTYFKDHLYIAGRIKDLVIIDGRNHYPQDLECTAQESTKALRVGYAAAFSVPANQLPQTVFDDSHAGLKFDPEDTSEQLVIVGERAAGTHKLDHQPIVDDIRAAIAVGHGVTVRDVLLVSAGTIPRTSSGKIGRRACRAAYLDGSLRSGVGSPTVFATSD

RAW264.7 = experiment: Cytotoxicity against mouse RAW264.7 cells assessed as cell viability at 25 microg/ml incubated for 24 hrs by MTT assay; type: toxicity, cell-based; settings: raw264.7, 24 h, dose 25 µg/ml
[9] = system: Mycobacterium tuberculosis; experiment: Antitubercular activity against Mycobacterium tuberculosis H37Rv infected in BALB/c mouse chronic model assessed as reduction in reduction in mycobacterial burden in lung at 2.5 mg/kg, ip measured after 21 to 25 days by H and E staining based analysis; type: functional, organism-based; settings: time 21-25 day
[10] = Toxicity in BALB/c mouse assessed as change in BUN level in serum at 2.5 mg/kg, ip measured for 14 days; type: organism-based; settings: in vivo, 336 h, time 14 day
[11] = system: Mycobacterium tuberculosis; experiment: Downregulation of papA mRNA expression in Mycobacterium tuberculosis assessed as fold change by qRT-PCR analysis; type: functional
[12] = Toxicity in BALB/c mouse assessed as body weight loss at 2.5 mg/kg, ip measured for 14 days; type: organism-based; settings: in vivo, 336 h, time 14 day
[13] = system: Mycobacterium tuberculosis; experiment: Antitubercular activity against Mycobacterium tuberculosis infected in human THP-1 cells assessed as reduction in colony forming units at 5 to 9 microg/ml incubated for 48 hrs in presence of isoniazid; type: functional, organism-based; settings: dose 5-9 µg/ml
[14] = system: Mycobacterium tuberculosis; experiment: Downregulation of fadD32 mRNA expression in Mycobacterium tuberculosis assessed as fold change by qRT-PCR analysis; type: functional
[15] = system: Mycolicibacterium smegmatis; experiment: Antimycobacterial activity against Mycobacterium smegmatis assessed as inhibition of bacterial growth incubated for 5 days by Alamar Blue based assay; type: functional, organism-based; settings: 120 h
[16] = system: Mycobacterium tuberculosis; experiment: Antitubercular activity against Mycobacterium tuberculosis infected in mouse RAW264.7 cells assessed as reduction in colony forming units at 5 to 9 microg/ml incubated for 48 hrs in presence of rifampin; type: functional, organism-based; settings: dose 5-9 µg/ml
[17] = target: T1, Long-chain-fatty-acid--AMP ligase FadD32 (Mycobacterium tuberculosis (strain ATCC 25618 / H37Rv)); experiment: Inhibition of Mycobacterium tuberculosis H37Rv recombinant FadD32 upto 200 uM in presence of lauric acid by Michaelis-Menten plot analysis
[18] = system: Mycobacterium tuberculosis; experiment: Antitubercular activity against Mycobacterium tuberculosis infected in mouse RAW264.7 cells assessed as reduction in colony forming units at 5 to 9 microg/ml incubated for 48 hrs in presence of isoniazid; type: functional, organism-based; settings: dose 5-9 µg/ml
[19] = Toxicity in BALB/c mouse assessed as change in creatine level in serum at 2.5 mg/kg, ip measured for 14 days; type: organism-based; settings: in vivo, 336 h, time 14 day
[20] = system: Mycobacterium tuberculosis; experiment: Downregulation of esxH mRNA expression in Mycobacterium tuberculosis assessed as fold change by qRT-PCR analysis; type: functional
[21] = Toxicity in BALB/c mouse assessed as animal survival at 2.5 mg/kg, ip measured for 14 days; type: organism-based; settings: in vivo, 336 h, time 14 day
Escherichia coli = experiment: Antibacterial activity against Escherichia coli assessed as inhibition of bacterial growth upto 200 microg/ml incubated for 5 days by Alamar Blue based assay; type: functional, organism-based; settings: dose <= 200.0 µg/ml, time 5.0 day
[22] = system: Mycobacterium tuberculosis; experiment: Downregulation of efpA mRNA expression in Mycobacterium tuberculosis assessed as fold change by qRT-PCR analysis; type: functional
[23] = target: T2, Long-chain-fatty-acid--AMP ligase FadD28 (Mycobacterium tuberculosis) (UniProt P9WQ59); experiment: Inhibition of Mycobacterium tuberculosis H37Rv recombinant fadD28 at 200 uM relative to control
T2 sequence (whole entry): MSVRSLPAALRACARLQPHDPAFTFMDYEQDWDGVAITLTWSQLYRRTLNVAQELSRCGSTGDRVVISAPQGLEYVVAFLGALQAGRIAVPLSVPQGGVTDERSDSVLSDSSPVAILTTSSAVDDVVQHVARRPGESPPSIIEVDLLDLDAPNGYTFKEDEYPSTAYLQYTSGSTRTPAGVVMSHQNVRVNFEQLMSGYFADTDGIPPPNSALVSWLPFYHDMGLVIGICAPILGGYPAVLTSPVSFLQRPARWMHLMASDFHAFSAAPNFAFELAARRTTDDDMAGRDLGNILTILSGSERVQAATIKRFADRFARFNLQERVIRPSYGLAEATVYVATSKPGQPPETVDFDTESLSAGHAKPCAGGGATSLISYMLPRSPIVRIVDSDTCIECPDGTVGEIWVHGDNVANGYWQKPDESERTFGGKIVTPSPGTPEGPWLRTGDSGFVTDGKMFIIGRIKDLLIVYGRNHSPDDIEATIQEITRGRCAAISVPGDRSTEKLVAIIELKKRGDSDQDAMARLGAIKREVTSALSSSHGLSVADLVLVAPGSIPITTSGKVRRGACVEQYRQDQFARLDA

[24] = target: T3, Long-chain-fatty-acid--AMP ligase FadD32 (Mycobacterium tuberculosis (strain ATCC 25618 / H37Rv), UniProt O53580); experiment: Uncompetitive inhibition of Mycobacterium tuberculosis H37Rv recombinant FadD32 assessed as inhibition constant in presence of lauric acid by Lineweaver-burk plot analysis
T3 sequence (O53580 whole entry): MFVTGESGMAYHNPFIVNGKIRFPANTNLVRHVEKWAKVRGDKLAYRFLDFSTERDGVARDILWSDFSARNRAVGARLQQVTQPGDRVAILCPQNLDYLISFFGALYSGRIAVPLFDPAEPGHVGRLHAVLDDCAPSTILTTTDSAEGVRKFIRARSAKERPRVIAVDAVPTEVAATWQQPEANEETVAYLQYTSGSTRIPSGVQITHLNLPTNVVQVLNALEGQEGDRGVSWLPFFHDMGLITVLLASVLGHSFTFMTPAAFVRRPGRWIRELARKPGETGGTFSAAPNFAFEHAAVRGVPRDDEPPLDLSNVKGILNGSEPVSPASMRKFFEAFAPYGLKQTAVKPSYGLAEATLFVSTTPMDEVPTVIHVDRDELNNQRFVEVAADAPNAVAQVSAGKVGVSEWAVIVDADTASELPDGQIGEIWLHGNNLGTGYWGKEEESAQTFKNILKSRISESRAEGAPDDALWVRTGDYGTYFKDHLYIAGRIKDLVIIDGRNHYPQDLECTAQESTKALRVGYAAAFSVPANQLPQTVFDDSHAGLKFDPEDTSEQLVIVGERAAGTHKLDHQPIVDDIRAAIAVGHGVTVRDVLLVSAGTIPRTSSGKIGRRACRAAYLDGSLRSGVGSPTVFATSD

[25] = Toxicity in BALB/c mouse assessed as change in SGOT level in serum at 2.5 mg/kg, ip measured for 14 days; type: organism-based; settings: in vivo, 336 h, time 14 day
[26] = target: T3, Long-chain-fatty-acid--AMP ligase FadD32; experiment: Partial noncompetitive inhibition of Mycobacterium tuberculosis H37Rv recombinant FadD32 assessed as inhibition constant in presence of ATP by Lineweaver-burk plot analysis
[27] = Toxicity in BALB/c mouse assessed as change in ALP level in serum at 2.5 mg/kg, ip measured for 14 days; type: organism-based; settings: in vivo, 336 h, time 14 day
[28] = system: Mycobacterium tuberculosis; experiment: Downregulation of murE mRNA expression in Mycobacterium tuberculosis assessed as fold change by qRT-PCR analysis; type: functional
[29] = system: Mycobacterium tuberculosis; experiment: Antitubercular activity against Mycobacterium tuberculosis H37Rv assessed as inhibition of bacterial growth incubated for 5 days in presence of rifampicin by Alamar Blue based assay; type: functional, organism-based; settings: time 5.0 day
[30] = system: Mycobacterium tuberculosis; experiment: Antitubercular activity against Mycobacterium tuberculosis H37Rv assessed as inhibition of bacterial growth incubated for 5 days in presence of isoniazid by Alamar Blue based assay; type: functional, organism-based; settings: time 5.0 day
[31] = system: Mycobacterium tuberculosis; experiment: Downregulation of CarD mRNA expression in Mycobacterium tuberculosis assessed as fold change by qRT-PCR analysis; type: functional
[32] = Toxicity in BALB/c mouse assessed as change in SGPT level in serum at 2.5 mg/kg, ip measured for 14 days; type: organism-based; settings: in vivo, 336 h, time 14 day
[33] = system: Mycobacterium tuberculosis; experiment: Antitubercular activity against Mycobacterium tuberculosis infected in mouse RAW264.7 cells assessed as reduction in colony forming units at 5 to 9 microg/ml incubated for 48 hrs; type: functional, organism-based; settings: dose 5-9 µg/ml
[34] = system: Mycobacterium tuberculosis; experiment: Downregulation of ctpC mRNA expression in Mycobacterium tuberculosis assessed as fold change by qRT-PCR analysis; type: functional
[35] = system: Mycobacterium tuberculosis; experiment: Antitubercular activity against Mycobacterium tuberculosis infected in human THP-1 cells assessed as reduction in colony forming units at 5 to 9 microg/ml incubated for 48 hrs; type: functional, organism-based; settings: dose 5-9 µg/ml
[36] = system: Mycobacterium tuberculosis; experiment: Downregulation of fadD28 mRNA expression in Mycobacterium tuberculosis assessed as fold change by qRT-PCR analysis; type: functional
[37] = system: Mycobacterium tuberculosis; experiment: Antitubercular activity against Mycobacterium tuberculosis infected in human THP-1 cells assessed as reduction in colony forming units at 5 to 9 microg/ml incubated for 48 hrs in presence of rifampin; type: functional, organism-based; settings: dose 5-9 µg/ml
[38] = system: Mycobacterium tuberculosis; experiment: Downregulation of hspX mRNA expression in Mycobacterium tuberculosis assessed as fold change by qRT-PCR analysis; type: functional

Cc1ccc(O)c(-c2cc(C(F)(F)F)no2)c1
IC50 [1]: 10.5 µg/mL (≈ 43.2 µM)

Oc1c(Br)cc(Br)cc1-c1cc(C(F)(F)F)no1
Activity [2]: Active
Activity [3]: Active
fold change (FC) [4]: 2
Activity (THP-1): Non-toxic
fold change (FC) [5]: 2
Activity [6]: Active
fold change (FC) [7]: 2
inhibition [8]: 95%
Activity (RAW264.7): Non-toxic
Activity [9]: Active
Activity [10]: Non-toxic
fold change (FC) [11]: 2
Activity [12]: Non-toxic
Activity [13]: Active
fold change (FC) [14]: 2
IC50 [15]: 20.8 µg/mL (≈ 53.8 µM)
Activity [16]: Active
inhibition [17]: Active
Activity [18]: Active
Activity [19]: Non-toxic
fold change (FC) [20]: 2
Activity [21]: Non-toxic
Activity (Escherichia coli): inactive
fold change (FC) [22]: 2
inhibition [23]: 50%
Ki [24]: 48.1 µM
Activity [25]: Non-toxic
Ki [26]: 55.3 µM
Activity [27]: Non-toxic
fold change (FC) [28]: 2
Activity [29]: Active
Activity [30]: Active
fold change (FC) [31]: 2
IC50 [1]: 4.8 µg/mL (≈ 12.4 µM)
Activity [32]: Non-toxic
Activity [33]: Active
fold change (FC) [34]: 2
Activity [35]: Active
fold change (FC) [36]: 2
Activity [37]: Active
fold change (FC) [38]: 2
